From PubChem BioAssay AID1963420 (Molecular Pharmacology Branch, DTP, NCI, 2024)

System: 494315-158-R-J1-PDC complex spheroid growth, percent test/control
Experiment: Anticancer human tumor 494315-158-R-J1-PDC patient-derived soft tissue sarcoma cell line growth inhibition [Asc]
Conditions: for IC50: curve of first compound; for viability, T/C: stronger effect = lower value; active = viability on the fitted dose curve at most 10% of control; inactive = the rest
In short: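 Tumor cells were grown as complex spheroids with human endothelial cells (HUVEC) and human mesenchymal stem cells as stroma. Agents were tested alone and in combination, in half-log steps down from the clinical Cmax, or from 10 microM where Cmax was unknown.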

[1] = second compound 0.1 µM, first compound 0.0316 µM
[2] = second compound 0.1 µM, first compound 0.1 µM
[3] = second compound 0.1 µM, first compound 0.316 µM
[4] = second compound 0.1 µM, first compound 1 µM
[5] = second compound 0.316 µM, first compound 0.0316 µM
[6] = second compound 0.316 µM, first compound 0.1 µM
[7] = second compound 0.316 µM, first compound 0.316 µM
[8] = second compound 0.316 µM, first compound 1 µM
[9] = second compound 1 µM, first compound 0.0316 µM
[10] = second compound 1 µM, first compound 0.1 µM
[11] = second compound 1 µM, first compound 0.316 µM
[12] = second compound 1 µM, first compound 1 µM
[13] = second compound 3.16 µM, first compound 0.0316 µM
[14] = second compound 3.16 µM, first compound 0.1 µM
[15] = second compound 3.16 µM, first compound 0.316 µM
[16] = second compound 3.16 µM, first compound 1 µM
[17] = second compound 10 µM, first compound 0.0316 µM
[18] = second compound 10 µM, first compound 0.1 µM
[19] = second compound 10 µM, first compound 0.316 µM
[20] = second compound 10 µM, first compound 1 µM
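Also: compound exposure lasted seven days after spheroids formed for three days.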

C=CC(=O)N1CCN(c2nc(=O)n(-c3c(C)ccnc3C(C)C)c3nc(-c4c(O)cccc4F)c(F)cc23)C(C)C1 (stereo not given) + Cc1c(S(C)(=O)=O)c(-c2cc(F)cc(N3CCN(c4ccc(NS(=O)(=O)c5ccc(NC(CCN6CCC(C(=O)OCCCP(=O)(O)O)CC6)CSc6ccccc6)c(S(=O)(=O)C(F)(F)F)c5)cc4)CC3)c2)c(-c2ccc(Cl)cc2)n1C(C)C
> 10000 nM: IC50 (second compound 0.1 µM) | IC50 (second compound 0.316 µM) | IC50 (second compound 1 µM) | IC50 (second compound 3.16 µM) | IC50 (second compound 10 µM)
inactive: viability, T/C [1] 101% | viability, T/C [2] 84.5% | viability, T/C [3] 88.9% | viability, T/C [4] 100% | viability, T/C (second compound 0.1 µM, first compound 3.16 µM) 108% | viability, T/C (second compound 0.1 µM, first compound 10 µM) 91.7% | viability, T/C [5] 67.4% | viability, T/C [6] 75.3% | viability, T/C [7] 72.2% | viability, T/C [8] 89.9% | viability, T/C (second compound 0.316 µM, first compound 3.16 µM) 80% | viability, T/C (second compound 0.316 µM, first compound 10 µM) 78.3% | viability, T/C [9] 86.4% | viability, T/C [10] 63.5% | viability, T/C [11] 74.1% | viability, T/C [12] 79.3% | viability, T/C (second compound 1 µM, first compound 3.16 µM) 84% | viability, T/C (second compound 1 µM, first compound 10 µM) 66% | viability, T/C [13] 61.1% | viability, T/C [14] 60.2% | viability, T/C [15] 69.5% | viability, T/C [16] 79.9% | viability, T/C (second compound 3.16 µM, first compound 3.16 µM) 81.4% | viability, T/C (second compound 3.16 µM, first compound 10 µM) 60.9% | viability, T/C [17] 81.3% | viability, T/C [18] 84.5% | viability, T/C [19] 92.8% | viability, T/C [20] 90.1% | viability, T/C (second compound 10 µM, first compound 3.16 µM) 98.5% | viability, T/C (second compound 10 µM, first compound 10 µM) 67.3%

COc1c(OCCCN2CCOCC2)ccc2c3n(c(=NC(=O)c4cnc(N)nc4)nc12)CCN3 + Cc1c(S(C)(=O)=O)c(-c2cc(F)cc(N3CCN(c4ccc(NS(=O)(=O)c5ccc(NC(CCN6CCC(C(=O)OCCCP(=O)(O)O)CC6)CSc6ccccc6)c(S(=O)(=O)C(F)(F)F)c5)cc4)CC3)c2)c(-c2ccc(Cl)cc2)n1C(C)C
14.7 nM: IC50 (second compound 0.316 µM)
3.18 nM: IC50 (second compound 3.16 µM)
16.5 nM: IC50 (second compound 1 µM)
9.27 nM: IC50 (second compound 10 µM)
active: viability, T/C [16] 8.31% | viability, T/C [20] 9.05%
inactive: viability, T/C (second compound 0.1 µM, first compound 0.00316 µM) 69.7% | viability, T/C (second compound 0.1 µM, first compound 0.01 µM) 60.7% | viability, T/C [1] 55.6% | viability, T/C [2] 29.8% | viability, T/C [3] 18% | viability, T/C [4] 12.9% | viability, T/C (second compound 0.316 µM, first compound 0.00316 µM) 67.6% | viability, T/C (second compound 0.316 µM, first compound 0.01 µM) 56.1% | viability, T/C [5] 37.6% | viability, T/C [6] 32.1% | viability, T/C [7] 15.8% | viability, T/C [8] 11.1% | viability, T/C (second compound 1 µM, first compound 0.00316 µM) 68.3% | viability, T/C (second compound 1 µM, first compound 0.01 µM) 58% | viability, T/C [9] 39.5% | viability, T/C [10] 26.6% | viability, T/C [11] 14% | viability, T/C [12] 10.7% | viability, T/C (second compound 3.16 µM, first compound 0.00316 µM) 49.7% | viability, T/C (second compound 3.16 µM, first compound 0.01 µM) 45% | viability, T/C [13] 32.7% | viability, T/C [14] 21.4% | viability, T/C [15] 12.5% | viability, T/C (second compound 10 µM, first compound 0.00316 µM) 69.3% | viability, T/C (second compound 10 µM, first compound 0.01 µM) 49% | viability, T/C [17] 31.2% | viability, T/C [18] 21.1% | viability, T/C [19] 12.8%
37.8 nM: IC50 (second compound 0.1 µM)
